Assay results taken from patent US20170008928A1, “NOVEL PEPTIDES AND PEPTIDE DERIVATIVES AND USES THEREOF” (Novo Nordisk A/S, priority 2015, published 2017).
Like-named read-outs stand apart in the source and are kept apart here. Starred links: 1 amine or outer side, 2 acyl side, 3 side chain; linkers in the order of their positions; H or OH if unused. Non-standard residues stand in square brackets, D forms with d. Residues, ends and D or L forms follow the SMILES beside them. *: point of attachment. sY = N[C@@H](Cc1ccc(OS(=O)(=O)O)cc1)C(=O)O; C18 diacid = O=C(O)CCCCCCCCCCCCCCCCC(=O)*; γGlu = O=C(O)[C@H](CCC(=O)[*:2])N[*:1]; 2Nal = N[C@@H](Cc1ccc2ccccc2c1)C(=O)O; NMeF = CN[C@@H](Cc1ccccc1)C(=O)O; dNMeD = CN[C@H](CC(=O)O)C(=O)O; Nle = CCCC[C@H](N)C(=O)O; AEEA = NCCOCCOCC(=O)O

How the values were obtained:
[1] = target: T1, human cholecystokinin-1 receptor (CCK-1R) (Homo sapiens, UniProt P32238); assay: In vitro receptor binding to CCK-1R, SPA displacement of [125I]-CCK-8s from plasma membranes
T1 construct: host or cells: 1321-N1 cells
T1 sequence (P32238 1-428): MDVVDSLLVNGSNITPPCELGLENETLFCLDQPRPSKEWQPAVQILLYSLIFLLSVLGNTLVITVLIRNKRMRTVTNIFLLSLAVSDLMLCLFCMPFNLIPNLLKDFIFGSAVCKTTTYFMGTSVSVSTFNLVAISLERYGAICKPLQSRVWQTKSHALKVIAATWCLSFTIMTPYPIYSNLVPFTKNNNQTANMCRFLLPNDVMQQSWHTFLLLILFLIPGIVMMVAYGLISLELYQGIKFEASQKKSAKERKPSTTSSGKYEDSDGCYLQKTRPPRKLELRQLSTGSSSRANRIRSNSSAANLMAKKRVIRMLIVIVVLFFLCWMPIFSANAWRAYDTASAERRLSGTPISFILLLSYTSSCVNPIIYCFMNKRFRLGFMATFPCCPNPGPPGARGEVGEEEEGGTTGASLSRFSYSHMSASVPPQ
Method: (§1) The in vitro binding affinity is a measure of the strength of attraction between a receptor and its ligand.
(§2) Displacement of radio ligand was measured as reduction in light emission from SPA beads.
(§3) The cells used in these assays were 1321-N1 cells stably expressing the CCK-1R or the CCK-2R (Perkin Elmer product numbers ES-530-A and ES-531-A, respectively see www.perkinelmer.com/Catalog/Product/ID/ES-530-A or -ES-531-A, respectively).
(§4) The cells were cultured in an incubator (95% RH (relative humidity), 5% (of standard atmospheric pressure) CO2, 37° C.) in cell culture medium (DMEM (Lonza catalogue BE-12-604F/U1), with 10% (v/v) Foetal Calf Serum (FCS, Gibco catalogue 16140-071), 1% (w/w) Sodium pyruvate (Gibco catalogue 11360-039), 500 μg/ml Geneticin® (G418) (Gibco catalogue 10131-027), 25 μg/ml Zeocin™ (Invitrogen catalogue R250-05), 1% (w/w) Pen/Strep (Gibco catalogue 15140-122)).
(§5) Plasma membranes were prepared by Evotec AG Hamburg by use of the ParrBomb (#4635, Parr Instrument Company). Cells were lysed with a lysis buffer (50 mM Tris, 2.5 mM EDTA, pH7) with added protease inhibitors (Complete Proteaseinhibitors EDTA-free (#05056489001, Roche), 1 tablet per 50 mL lysis buffer). The membrane fraction was separated by centrifugation. First, the cell lysate was centrifuged at 1000×g for 10 minutes at 4° C. The pellet was discarded and the supernatant was then centrifuged at 100.000×g for 30 minutes at 4° C. The supernatant was discarded and the pellet was re-suspended in 1 ml/5×10^8 cells ice cold membrane buffer (50 mM Tris, 320 mM Sucrose and Complete Proteaseinhibitors EDTA-free (#05056489001, Roche); pH7.4) and homogenised with dounce homogeniser. The protein concentration was determined using the Pierce™ BCA Protein Assay Kit according to kit manual, and the membrane preparation was adjust to the desired protein concentration with membrane buffer and aliquoted into pre-cooled tubes, snap-frozen in liquid nitrogen, and stored at −80° C.
(§6) CCK receptor binding assays were performed in 96-well Optiplates (Cat #6005290, PerkinElmer, Waltham, Mass., USA) in a total volume of 200 μl per well. CCK derivatives in 80% DMSO stock solutions of 800 μM were serially diluted […] in assay buffer (50 mM Tris/HCl, 4.5 mM MgCl2, […], 0.02% Tween 20, 0.25% ovalbumin, 0.1% pluronic F-68, pH 7.4) to final assay concentrations ranging from 10^−5 M (ten μM) to 10^−12 M (one pM).
(§7) Fifty μl of reference or test compounds were added to the Optiplates (using technical duplicates, i.e. two wells of each sample, one data point being the average of two wells), followed by addition of 150 μl of the mixture of SPA bead, radio ligand, and plasma membrane. The plates were sealed and incubated in the dark at +22° C. for 2 hours on a IKA MTS plate shaker (IKA-Werke D-79219 Staufen) set at 300 rpm and thereafter centrifuged at 1500 rpm for 10 minutes in a Heraeus Multifuge 3s centrifuge. SPA bead light emission was measured in a TopCount NXT (PerkinElmer) for 2 min/well after a delay of 60 min.
(§8) As a measure of compound affinity, calculations were performed in order to determine the half maximal inhibitory concentration (the IC50 value).
(§9) The data from the TopCounter were given as counts per minute (CPM). The CPM was plotted as a function of the concentration of compound. Dose-response curves were obtained, and IC50 values were calculated, by a nonlinear three-parameter logistic equation (log(agonist) vs response) with hillslope=−1, and shared top and bottom using the software programme GraphPad Prism v 6.0 (Graph Pad software, La Jolla, Calif., USA). The highest dose tested was 10^−5 M (1×10^7 pM).
(§10) The preference of a specific compound for the CCK-1 receptor, or the CCK-1R selectivity, may be defined as IC50 (CCK-2R)/IC50 (CCK-1R).
(§11) A minimum of three biological replicates was measured for each test compound on separate assay plates.

[2] = target: T2, human cholecystokinin-2 receptor (CCK-2R) (Homo sapiens, UniProt P32239); assay: In vitro receptor binding to CCK-2R, SPA displacement of [125I]-CCK-8s from plasma membranes
T2 construct: host or cells: 1321-N1 cells (plasma membranes prepared by Evotec AG Hamburg)
T2 sequence (P32239 1-447): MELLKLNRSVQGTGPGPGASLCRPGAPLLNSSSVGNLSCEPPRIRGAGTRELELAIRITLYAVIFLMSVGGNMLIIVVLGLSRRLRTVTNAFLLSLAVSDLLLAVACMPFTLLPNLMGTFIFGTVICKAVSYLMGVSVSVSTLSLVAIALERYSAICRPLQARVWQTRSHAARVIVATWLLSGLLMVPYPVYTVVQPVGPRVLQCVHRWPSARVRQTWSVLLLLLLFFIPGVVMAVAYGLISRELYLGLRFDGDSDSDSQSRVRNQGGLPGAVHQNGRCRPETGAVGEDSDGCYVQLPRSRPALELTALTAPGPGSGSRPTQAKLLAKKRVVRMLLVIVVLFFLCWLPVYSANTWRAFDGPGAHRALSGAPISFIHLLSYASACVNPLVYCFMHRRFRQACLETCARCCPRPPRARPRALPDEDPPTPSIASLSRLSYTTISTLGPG
Method: as §1, §2, §3, §4, §5, §6, §7, §8, §9, §10, §11

[3] = target: T2, human cholecystokinin-2 receptor (CCK-2R); assay: In vitro potency on CCK-2R, whole cell functional assay (IP1 accumulation, IP-One HTRF); assay type: cell-based; conditions: 1321-N1 cells stably expressing CCK-2R; IP1 accumulation; highest dose tested 1×10^6 pM; read-out: EC50 (CCK-2R)
[4] = displacement of [125I]-CCK-8s, plasma membranes of 1321-N1 cells expressing CCK-1R, read-out: IC50 (CCK-1R)
[5] = displacement of [125I]-CCK-8s, plasma membranes of 1321-N1 cells expressing CCK-2R, highest dose tested 1×10^7 pM, read-out: IC50 (CCK-2R)

Row | IC50 [1, 4] [nM] | IC50 [2, 5] [nM] | SMILES | also measured
1 | – | – | CC[C@H](C)[C@H](NC(=O)[C@H](Cc1c[nH]c2ccccc12)NC(=O)CNC(=O)[C@H](CC(C)C)NC(=O)[C@H](Cc1ccc(OS(=O)(=O)O)cc1)NC(=O)[C@H](CC(=O)O)NC(=O)COCCOCCNC(=O)COCCOCCNC(=O)CC[C@H](NC(=O)CCCCCCCCCCCCCCCCC(=O)O)C(=O)O)C(=O)N(C)[C@H](CC(=O)O)C(=O)N(C)[C@@H](Cc1ccccc1)C(N)=O [Example 10, 2-[2-[2-[[2-[2-[2-[[(4S)-4-Carboxy-4-(17-carboxyheptadecanoylamino)butanoyl]amino]ethoxy]ethoxy]acetyl]amino]ethoxy]ethoxy]acetyl-Asp-sTyr-Leu-Gly-Trp-Ile-DMeAsp-MePhe-amide] ({C18 diacid-γGlu-AEEA-AEEA}-D[sY]LGWI[dNMeD][NMeF]-NH2) | IC50 [1]: 0.1 nM; IC50 [2]: 2300 nM
2 | 0.1 | – | CCCC[C@H](NC(=O)[C@H](Cc1c[nH]c2ccccc12)NC(=O)CNC(=O)[C@H](CC(C)C)NC(=O)[C@H](Cc1ccc(OS(=O)(=O)O)cc1)NC(=O)[C@H](CC(=O)O)NC(=O)COCCOCCNC(=O)COCCOCCNC(=O)CC[C@H](NC(=O)CC[C@H](NC(=O)CCCCCCCCCCCCCCCCC(=O)O)C(=O)O)C(=O)O)C(=O)N(C)[C@H](CC(=O)O)C(=O)N(C)[C@@H](Cc1ccccc1)C(N)=O [Example 28, 2-[2-[2-[[2-[2-[2-[[(4S)-4-Carboxy-4-[[(4S)-4-carboxy-4-(17-carboxyheptadecanoylamino)butanoyl]amino]butanoyl]amino]ethoxy]ethoxy]acetyl]amino]ethoxy]ethoxy]acetyl-Asp-sTyr-Leu-Gly-Trp-Nle-DMeAsp-MePhe-amide] | –
3 | 0.14 | – | CCCC[C@H](NC(=O)[C@H](Cc1c[nH]c2ccccc12)NC(=O)CNC(=O)[C@H](CC(C)C)NC(=O)[C@H](Cc1ccc(OS(=O)(=O)O)cc1)NC(=O)[C@H](CC(=O)O)NC(=O)COCCOCCNC(=O)COCCOCCNC(=O)CC[C@H](NC(=O)CCCCCCCCCCCCCCCCC(=O)O)C(=O)O)C(=O)N(C)[C@H](CC(=O)O)C(=O)N[C@@H](Cc1ccc2ccccc2c1)C(N)=O [Example 50, 2-[2-[2-[[2-[2-[2-[[(4S)-4-Carboxy-4-(17-carboxyheptadecanoylamino)butanoyl]amino]ethoxy]ethoxy]acetyl]amino]ethoxy]ethoxy]acetyl-Asp-sTyr-Leu-Gly-Trp-Nle-DMeAsp-2Nal-amide] ({C18 diacid-γGlu-AEEA-AEEA}-D[sY]LGW[Nle][dNMeD][2Nal]-NH2) | –
4 | 0.049 | 480 | CCCC[C@H](NC(=O)[C@H](Cc1c[nH]c2ccccc12)NC(=O)CNC(=O)[C@H](CC(C)C)NC(=O)[C@H](Cc1ccc(OS(=O)(=O)O)cc1)NC(=O)[C@H](CCC(=O)O)NC(=O)COCCOCCNC(=O)COCCOCCNC(=O)CC[C@H](NC(=O)CCCCCCCCCCCCCCCCC(=O)O)C(=O)O)C(=O)N(C)[C@H](CC(=O)O)C(=O)N[C@@H](Cc1ccccc1)C(N)=O [Example 52, 2-[2-[2-[[2-[2-[2-[[(4S)-4-Carboxy-4-(17-carboxyheptadecanoylamino)butanoyl]amino]ethoxy]ethoxy]acetyl]amino]ethoxy]ethoxy]acetyl-Glu-sTyr-Leu-Gly-Trp-Nle-DMeAsp-Phe-amide] ({C18 diacid-γGlu-AEEA-AEEA}-E[sY]LGW[Nle][dNMeD]F-NH2) | –
5 | – | > 10000 | CCCC[C@H](NC(=O)[C@H](Cc1c[nH]c2ccccc12)NC(=O)CNC(=O)[C@H](CC(C)C)NC(=O)[C@H](Cc1ccc(OS(=O)(=O)O)cc1)NC(=O)[C@H](N)CCC(=O)O)C(=O)N(C)[C@H](CC(=O)O)C(=O)N(C)[C@@H](Cc1ccccc1)C(N)=O [Example 87, DGlu-sTyr-Leu-Gly-Trp-Nle-DMeAsp-MePhe-amide] (H-[dE][sY]LGW[Nle][dNMeD][NMeF]-NH2) | EC50 [3]: > 1000 nM
